Data on 32 compounds can be found in US10602743B2, “Method of inducing drought/salt tolerance using Bacillus megaterium” (Marrone Bio Innovations, Inc., priority 2012, dated 2020).

The test system of data set [1] is Bacillus megaterium H491. Kind of data set: Antibiotic susceptibility, antibiotic disks on Muller-Hinton medium. The conditions noted are these: antibiotic disk, 48-hour incubation at 25° C. The class given is cell-based. Details: key: +++ (very); ++ (somewhat); + (marginally); resistance is indicated by (−). The procedure:
(§1) Antibiotic susceptibility of Bacillus megaterium strains H491, J142 and M018 was tested using antibiotic disks on Muller-Hinton medium as described in PML Microbiological's technical data sheet #535.

The test system of data set [2] is Bacillus megaterium J142. The description is as above. In kind it is cell-based. Also noted: key: +++ (very); ++ (somewhat); + (marginally); resistance is indicated by (−). The conditions noted are these: antibiotic disk, 48-hour incubation at 25° C. On the procedure:
as §1

The test system of data set [3] is Bacillus megaterium M018. The description is as above. In kind it is cell-based. Details: key: +++ (very); ++ (somewhat); + (marginally); resistance is indicated by (−). The settings on record: antibiotic disk, 48-hour incubation at 25° C. The procedure: as §1
Data set [4] relates to Bacillus megaterium strain H491. Briefly: Chemical sensitivity, Biolog Phenotypic Microarray. The settings on record: Biolog Phenotypic Microarray; for Resistance of H491 observed in wells containing compound: at a maximum concentration of 4 ug; for H491 susceptible to compound: 25° C. The class given is cell-based.
Data set [5] concerns Vero cells. The settings on record: cited from earlier work.

In the case of `CC1(C)S[C@@H]2[C@H](NC(=O)[C@H](N)c3ccccc3)C(=O)N2[C@H]1C(=O)O` [Ampicillin], the “Susceptibility degree of H491” value in data set [1] is “+++”. Besides, the “Susceptibility degree of J142” value in data set [2] is “+++”. Also, in data set [3], the “Susceptibility degree of M018” value is listed as “++”. For the same compound, the “Resistance of H491 observed in wells containing compound” value (“Resistance of H491 observed” for short) in data set [4] was “Resistance”.
Regarding `CO/N=C(\C(=O)N[C@@H]1C(=O)N2C(C(=O)O)=C(COC(N)=O)CS[C@H]12)c1ccco1` [Cefuroxime], in data set [1], the “Susceptibility degree of H491” value was “+++”. Further, in data set [2], the “Susceptibility degree of J142” value was “+++”. Further, the “Susceptibility degree of M018” value in data set [3] was “+++”. In addition, in data set [4], the “H491 susceptible to compound” value is “susceptible”.
Consider `O=C(N[C@H](CO)[C@H](O)c1ccc([N+](=O)[O-])cc1)C(Cl)Cl` [Chloramphenicol], for which the “Susceptibility degree of H491” value in data set [1] is listed as “+++”. Moreover, the “Susceptibility degree of J142” value in data set [2] is recorded as “+++”. Also, the “Susceptibility degree of M018” value in data set [3] is recorded as “++”.
As to `O=C(O)c1cn(C2CC2)c2cc(N3CCNCC3)c(F)cc2c1=O` [Ciprofloxacin], the “Susceptibility degree of H491” value in data set [1] is given as “+++”. In addition, in data set [2], the “Susceptibility degree of J142” value was “+++”. Also, the “Susceptibility degree of M018” value in data set [3] is “+++”.
For `CC[C@H]1OC(=O)[C@H](C)[C@@H](O[C@H]2C[C@@](C)(OC)[C@@H](O)[C@H](C)O2)[C@H](C)[C@@H](O[C@@H]2O[C@H](C)C[C@H](N(C)C)[C@H]2O)[C@](C)(O)C[C@@H](C)C(=O)[C@H](C)[C@@H](O)[C@]1(C)O` [Erythromycin], the “Susceptibility degree of H491” value in data set [1] is given as “+++”. The “Susceptibility degree of J142” value in data set [2] is on record as “+++”. Also, in data set [3], the “Susceptibility degree of M018” value was “+++”. Moreover, the “H491 susceptible to compound” value in data set [4] is “susceptible”.
As for `C[C@@H](O)[C@H]1C(=O)N2C(C(=O)O)=C(SCCN=CN)C[C@H]12` [Imipenem], the “Susceptibility degree of H491” value in data set [1] is listed as “+++”. In addition, the “Susceptibility degree of J142” value in data set [2] is listed as “+++”. In addition, the “Susceptibility degree of M018” value in data set [3] was “+++”.
Turning to `NC[C@H]1O[C@H](O[C@H]2[C@H](O)[C@@H](O[C@H]3O[C@H](CO)[C@@H](O)[C@H](N)[C@H]3O)[C@H](N)C[C@@H]2N)[C@H](O)[C@@H](O)[C@@H]1O` [Kanamycin], the “Susceptibility degree of H491” value in data set [1] was “+++”. Also, the “Susceptibility degree of J142” value in data set [2] was “+++”. For the same compound, the “Susceptibility degree of M018” value in data set [3] is recorded as “+++”.
For the compound `Nc1ncnc2c1ncn2[C@@H]1O[C@H](CO)[C@H]1CO` [Oxetanocin, 9-[(2R,3R,4S)-3,4-bis(hydroxymethyl)-2-oxetanyl]adenine], in data set [5], the “Cytotoxicity against Vero cells (50% inhibition of cell growth)” value is on record as 132.6 μg/well.
With `CN(C)[C@@H]1C(O)=C(C(N)=O)C(=O)[C@@]2(O)C(O)=C3C(=O)c4c(O)cccc4[C@@](C)(O)[C@H]3[C@H](O)[C@@H]12` [Oxytetracycline], the “Susceptibility degree of H491” value in data set [1] is reported as “+++”. The “Susceptibility degree of J142” value in data set [2] is listed as “+++”. For the same compound, in data set [3], the “Susceptibility degree of M018” value is “+++”.
In the case of `CCN1CCN(C(=O)N[C@@H](C(=O)N[C@@H]2C(=O)N3[C@@H]2SC(C)(C)[C@@H]3C(=O)O)c2ccccc2)C(=O)C1=O` [Piperacillin], the “Susceptibility degree of H491” value in data set [1] is reported as “+++”. In addition, in data set [2], the “Susceptibility degree of J142” value is on record as “+”. For the same compound, in data set [3], the “Susceptibility degree of M018” value is given as “++”.
With `[H]/N=C(/N)N[C@H]1[C@H](O)[C@@H](O)[C@H](O[C@@H]2O[C@@H](C)[C@](O)(C=O)[C@H]2O[C@@H]2O[C@@H](CO)[C@H](O)[C@@H](O)[C@@H]2NC)[C@@H](N/C(N)=N\[H])[C@@H]1O` [Streptomycin], the “Susceptibility degree of H491” value in data set [1] is reported as “+++”. Moreover, in data set [2], the “Susceptibility degree of J142” value was “+++”. Moreover, the “Susceptibility degree of M018” value in data set [3] was “+”. Besides, the “H491 susceptible to compound” value in data set [4] was “susceptible”.
Take `CN(C)[C@@H]1C(O)=C(C(N)=O)C(=O)[C@@]2(O)C(O)=C3C(=O)c4c(O)cccc4[C@@](C)(O)[C@H]3C[C@@H]12` [Tetracycline]: the “Susceptibility degree of H491” value in data set [1] is reported as “+++”. Further, the “Susceptibility degree of J142” value in data set [2] is “+++”. Further, the “Susceptibility degree of M018” value in data set [3] is “+++”.
Take `CCn1cc(C(=O)O)c(=O)c2cc(F)c(N3CCNC(C)C3)c(F)c21` (stereo not shown) [lomefloxacin]: the “Resistance of H491 observed” value in data set [4] is “Resistance”.
Still for that read-out and setting: with `CCn1cc(C(=O)O)c(=O)c2cc3c(cc21)OCO3` [oxolinic acid] the entry was “Resistance”; with `CN[C@@H]1[C@H](O)[C@H](NC)[C@H]2O[C@@]3(O)C(=O)C[C@@H](C)O[C@H]3O[C@@H]2[C@H]1O` [spectinomycin], “Resistance”.
Still for that read-out and setting: with `Cc1cc(C)nc(NS(=O)(=O)c2ccc(N)cc2)n1` [sulfamethazine] the entry was “Resistance”.
As for `O=C(O)/C=C/c1ccccc1` [trans-Cinnamic acid], the “H491 susceptible to compound” value in data set [4] is reported as “susceptible”.
On the same count and under the same terms, under Acriflavine stands “susceptible”.
Same read-out and setting: with Capreomycin the entry was “susceptible”.
Consider Gentamicin, for which the “Susceptibility degree of H491” value in data set [1] was “+++”. Moreover, the “Susceptibility degree of J142” value in data set [2] was “+++”. Further, the “Susceptibility degree of M018” value in data set [3] was “+++”. Further, the “Resistance of H491 observed” value in data set [4] was “Resistance”.
Regarding Neomycin, in data set [4], the “H491 susceptible to compound” value was “susceptible”.
Regarding Niaproof, the “H491 susceptible to compound” value in data set [4] was “susceptible”.
Penicillin: the “Susceptibility degree of H491” value in data set [1] was “+++”. In addition, in data set [2], the “Susceptibility degree of J142” value is given as “−”. Moreover, the “Susceptibility degree of M018” value in data set [3] is given as “++”.
With Penimepicycline, in data set [4], the “H491 susceptible to compound” value is given as “susceptible”.
Still for that read-out and setting: with Phleomycin the entry was “susceptible”; with Poly-L-lysine, “susceptible”.
Polymyxin B: in data set [4], the “H491 susceptible to compound” value is recorded as “susceptible” and the “Resistance of H491 observed” value is “Resistance”.
As for Protamine sulfate, in data set [4], the “H491 susceptible to compound” value is recorded as “susceptible”.
On the same count and under the same terms, with Sodium metavanadate the entry was “susceptible”.
Spiramycin: the “H491 susceptible to compound” value in data set [4] was “susceptible”.
As for bleomycin, in data set [4], the “Resistance of H491 observed” value is reported as “Resistance”.
In the case of colistin, the “Resistance of H491 observed” value in data set [4] is reported as “Resistance”.
